IC50 data for 13 compounds are collected here from ChEMBL document CHEMBL1128587, “Structure-based inhibitors of influenza virus sialidase. A benzoic acid lead with novel interaction” (J Med Chem, 1995).

pIC50: −log10 of the molar value. Some results are limits rather than exact numbers.

Holding throughout (format): functional, organism-based
Experiment [1] has as its system Influenza B virus. Put plainly: The compound was tested in vitro for the inhibitory concentration against influenza B/Mem/89 sialidase from whole virus by MUN assay.
Experiment [2] deals with Influenza A virus. Put plainly: The compound was tested in vitro for the inhibitory concentration against influenza N2 sialidase from whole virus by MUN assay.
The test system of experiment [3] is Influenza B virus. The experiment in a line: The compound was tested in vitro for the inhibitory concentration against influenza B/Mem/89 sialidase from whole virus by fetuin assay.
Experiment [4] relates to Influenza A virus. The experiment in a line: The compound was tested in vitro for the inhibitory concentration against influenza N2 sialidase from whole virus by fetuin assay.

Regarding `CC(=O)Nc1c(O)cc(C(=O)O)cc1[N+](=O)[O-]`, the pIC50 is 3.12 in experiment [1], 3.12 in experiment [2], 3.00 in experiment [3] and 3.00 in experiment [4].

Consider `CC(=O)N[C@H]1[C@H]([C@H](O)[C@H](O)CO)OC(C(=O)O)=C[C@@H]1O` [NEU5AC2EN], for which the negative-log IC50 (pIC50) in experiment [1], in experiment [2], in experiment [3] and in experiment [4] was 4.82 in each case.

Regarding `CC(=O)Nc1ccc(C(=O)O)cc1NC(=O)C(O)CO` (stereo not drawn), the pIC50 in experiment [1] was 2.10; in experiment [2], 2.30; in experiment [3], under 2.00; in experiment [4], 2.40.

Take `CC(=O)Nc1ccc(C(=O)O)cc1[N+](=O)[O-]`: the pIC50 in experiment [1], in experiment [2], in experiment [3] and in experiment [4] was 2.30 in each case.

`CC(=O)Nc1ccc(C(=O)O)cc1NC(=O)CCCN`: the pIC50 in experiment [1], in experiment [2], in experiment [3] and in experiment [4] was under 2.00 each time.

On to `CC(=O)Nc1cc([N+](=O)[O-])c(C(=O)O)c([N+](=O)[O-])c1O`, for which the pIC50 in experiment [1] was 3.00; in experiment [2] it was 3.00; in experiment [3], 2.40; in experiment [4], 2.52.

Turning to `CC(=O)Nc1c(OC(C)=O)cc(C(=O)O)cc1[N+](=O)[O-]`, the pIC50 in experiment [1] was 2.70; in experiment [2], 2.30; in experiment [3], 2.40; in experiment [4], 2.52.

In the case of `CC(=O)Nc1c(N)cc(C(=O)O)cc1O`, the pIC50 in experiment [1] was 2.00; in experiment [2], under 2.00; in experiment [3] it was under 2.00; in experiment [4] it was under 2.00.

`CC(=O)NC1C(O)CC(O)(C(=O)O)OC1[C@H](O)[C@H](O)CO` (stereo partly drawn) had a pIC50 in experiment [1] of under 2.00.

Consider `CC(=O)Nc1ccc(C(=O)O)cc1OC(C)=O`, for which the pIC50 in experiment [1] is under 2.00; in experiment [2], under 2.00; in experiment [3] it was 2.30; in experiment [4], 2.00.

Turning to `CC(=O)Nc1ccc(C(=O)O)cc1NC(=O)CO`, the negative-log IC50 (pIC50) in experiment [1] was 2.52; in experiment [2] it was 2.40; in experiment [3] it was 2.00; in experiment [4], under 2.00.

Consider `CC(=O)Nc1ccc(C(=O)O)cc1N`, for which the pIC50 in experiment [1] is under 1.70; in experiment [2], under 2.00; in experiment [4] it was under 2.00.

For `CC(=O)Nc1ccc(C(=O)O)cc1O` [3-HYDROXY-4-ACETYLAMINOBENZOIC ACID], the pIC50 in experiment [1] was under 2.00; in experiment [2] it was under 2.00; in experiment [3] it was 2.00; in experiment [4], 2.00.
